According to US20190298722A1, “USE OF AN INHIBITOR OF THE DE NOVO SYNTHESIS OF PURINES, IN THE TREATMENT OF ADENYLOSUCCINATE LYASE DEFICIENCY” (ASSISTANCE PUBLIQUE-HOPITAUX DE PARIS, priority 2016, published 2019):

Experiments:
[1] = test system: patients with ADSL deficiency; assay: Urinary assay of SAICAr and S-Ado by HPLC with UV detection (HPLC-DAD); type: in vivo, human; conditions: 3 patients, after 6 and 12 months of treatment with allopurinol
Method: SAICAr and S-Ado metabolites in urine were assayed using HPLC-DAD and HPLC coupled with tandem mass spectrometry (HPLC-MS/MS) according to the techniques recently described (Ceballos-Picot et al. 2015; Zikanova et al. 2014).

[2] = test system: patients with ADSL deficiency; assay: Conners scale (parents and teachers) during allopurinol treatment; type: in vivo, human
Method: Clinical characterization of the patients was carried out before starting treatment (T1) in accordance with the ICD 10 classification, using standardized tools: • A semi-structured interview by means of the Autism Diagnostic Interview (ADI-R): this is a semi-structured interview intended to classify symptoms reported by parents in the domain of communication, social interaction, restricted and stereotyped behaviours or sensory issues. Scores are established for the current period and, if necessary, for the period when the difficulties were most serious, between the ages of 4 and 5 years. A score is established for each of the three domains based on responses provided by the parents and the judgement of the interviewer. Scores above the thresholds in the 3 domains support a diagnosis of autism, and in one or two domains support a diagnosis of a pervasive developmental disorder. Scores below the thresholds in the 3 domains make it possible to rule out diagnosis of an autism spectrum disorder if the ADI-R results converge with the clinical assessment of the child. • A semi-structured interview using the Vineland 2 scale: this is a semi-structured interview which makes it possible to assess the adaptive skills of the child in the domains of communication, daily life, social skills and motor skills. From the description of their child's daily living skills, equivalent developmental ages and standardized scores are calculated, making it possible to describe the developmental and adaptive profile of the child. • A developmental assessment using the Psychoeducational Profile (PEP 3): this is a direct assessment of the skills of the child in several domains of their development, particularly suited to children who display a developmental disability. Six domains of development are assessed: verbal and preverbal cognition (VPC), expressive language (EL), receptive language (RL), gross motor skills (GM), fine motor skills (FM) and visual-motor imitation (VMI). The results are expressed in terms of equivalent developmental age and emerging score, when the exercises are partially completed. The number of emerging skills, or the difference between the actual ages and the emerging scores, are evidence of the development potential of the children. • The Conners scale: this is an assessment scale intended to quantify the symptoms of inattentiveness, agitation, impulsiveness, anxiety, somatization, behavioural difficulties and learning difficulties. There are several versions of the questionnaire, one for parents, the other for teachers or professionals. The scoring makes it possible to obtain an overall standardized score, considered to be significant when it is greater than 1.5.
Clinical re-assessments were carried out 6 months and one year after treatment with allopurinol and compared to the first assessment in the absence of treatment with allopurinol. They comprised: • At 6 months: scoring of the Vineland and Conners scales • At 12 months: scoring of the Vineland and Conners scales and completion of PEP-3.
Clinical progress at 200 mg of allopurinol was measured for each child based on the Conner and Vineland scale scores before treatment (T1), at 6 months (T2) and at 12 months of treatment (T3) with regard to behaviour and function.

O=c1ncnc2[nH][nH]cc1-2 [allopurinol, 1,2-dihydro-4H-pyrazolo[3,4-d]pyrimidin-4-one]
SAICAr and S-Ado in urine (HPLC-DAD) [1]: significant reduction | overall clinical outcome ([2]; 3 patients during treatment with allopurinol, more significant in the youngest patient (P3)): clinical improvement | Conners v-score, scale completed by the parents ([2]; 3 patients, T1, T2, T3): reduction in the v-score | scores on the Conners scale (parents and teachers) ([2]; 3 patients, during treatment): reduction | Conners score, Teachers ([2]; Patient 1, T2 (6 months), T1 2.2, significant when >1.5): 1.5 | Conners score, Parents ([2]; Patient 1, T2 (6 months), T1 2.3): 1.6 | Conners score, Teachers ([2]; Patient 1, T3 (12 months), T1 2.2): 1 | Conners score, Parents ([2]; Patient 1, T3 (12 months), T1 2.3): 1.8 | Conners score, Parents ([2]; Patient 2, T2 (6 months), T1 1): 0.8 | Conners score, Teachers ([2]; Patient 2, T2 (6 months), T1 2): 1.5 | Conners score, Parents ([2]; Patient 2, T3 (12 months), T1 1): 0.5 | Conners score, Teachers ([2]; Patient 2, T3 (12 months), T1 2): 1.4 | Conners score, Parents ([2]; Patient 3, T2 (6 months), T1 1.7): 1.2 | Conners score, Teachers ([2]; Patient 3, T2 (6 months), T1 1.9): 1.8 | Conners score, Parents ([2]; Patient 3, T3 (12 months), T1 1.7): 1 | Conners score, Teachers ([2]; Patient 3, T3 (12 months), T1 1.9): 1 | hyperactivity reported by the parents and teachers ([2]; three children, allopurinol 200 mg/d): reduction in hyperactivity | behavioural disorders ([2]; three children, allopurinol 200 mg/d, after 6 and 12 months): substantial improvement | behavioural disorders assessed using the Conners and Vineland scales ([2]; three children, allopurinol 200 mg/d, after 6 months): substantial improvement
